Data taken from ChEMBL document CHEMBL5038662, “Isolation, Synthesis, and Structure-Activity Relationship Study on Daphnane and Tigliane Diterpenes as HIV Latency-Reversing Agents” (J Med Chem, 2022).

How the values were obtained:
[1] = test system: Human immunodeficiency virus 1; assay: Antiviral activity against HIV1 in human TZM-bl cells transfected with firefly luciferase and beta-galactosidase reporter genes assessed as activation of LTR-mediated transcriptional activity incubated for 24 hrs by luciferase reporter gene assay; format: functional, organism-based; details: Human immunodeficiency virus 1, TZM-bl
TZM = assay: Cytotoxicity against human TZM-bl cells measured upto 0.1 uM; format: toxicity, cell-based

Row | SMILES | EC50 [1] [nM] | Activity (TZM)
1 | C=C(C)[C@]12C[C@@H](COC(C)=O)[C@@]34OC5(O[C@@H]1[C@@H]3[C@@H]1O[C@]1(CO)[C@@H](O)[C@@]1(O)[C@H]4[C@H]([C@H](C)[C@@H]1OCc1ccccc1)[C@H](C)C[C@H](OCc1ccccc1)CCCC[C@H]5O)O2 | 12 | 
2 | CCCCCCCCCC(=O)O[C@@]12[C@H](OC(=O)c3ccccc3)[C@@H](C)[C@@]3(O)[C@@H](C=C(CO)C[C@]4(O)C(=O)C(C)=C[C@@H]34)[C@@H]1C2(C)C [STELLERARIN] | 0.74 | 
3 | C=C(C)[C@@]12O[C@]3(/C=C/C=C/CCCCCCCCC)O[C@@H]1[C@@H]1[C@@H]4O[C@]4(CO)[C@@H](O)[C@]4(O)C(=O)C(C)=C[C@H]4[C@@]1(O3)[C@H](C)[C@H]2OC(C)=O | 0.39 | 
4 | C=C(C)[C@]12C[C@@H](C)[C@@]34OC5(CCCCCCC[C@@H](C)[C@H]6[C@H](C)[C@H](OCc7ccccc7)[C@@](O)([C@H](O)[C@@]7(CO)O[C@H]7[C@H]3[C@H]1O5)[C@@H]64)O2 | 2.7 | 
5 | CCC(=O)O[C@@]12[C@H](OC(=O)c3ccccc3)[C@@H](C)[C@@]3(O)[C@@H](C=C(CO)C[C@]4(O)C(=O)C(C)=C[C@@H]34)[C@@H]1C2(C)C | 10 | Non-Toxic
6 | CCCCCCCC(=O)O[C@@]12[C@H](OC(=O)c3ccccc3)[C@@H](C)[C@]3(O)[C@@H]4C=C(C)C(=O)[C@@]4(O)[C@H](O)C(CO)=C[C@H]3[C@@H]1C2(C)C | 12 | 
7 | C=C(C)[C@]12C[C@@H](COC(C)=O)[C@@]34OC5(O[C@@H]1[C@@H]3[C@@H]1O[C@]1(CO)[C@@H](O)[C@@]1(O)[C@H]4[C@H]([C@H](C)[C@@H]1OCc1ccccc1)[C@H](C)CCCCCC[C@H]5O)O2 | 0.33 | 
8 | CCCCC/C=C\CCC(=O)O[C@@]12[C@H](OC(=O)c3ccccc3)[C@@H](C)[C@@]3(O)[C@@H](C=C(CO)C[C@]4(O)C(=O)C(C)=C[C@@H]34)[C@@H]1C2(C)C | 4.2 | Non-Toxic
9 | C=C(C)[C@]12CC[C@@]34OC(C)(O[C@@H]1[C@@H]3[C@@H]1O[C@]1(CO)[C@@H](O)[C@]1(O)[C@@H](OCc3ccccc3)[C@@H](C)C[C@@H]41)O2 | 0.14 | 
10 | C=C(C)[C@]12C[C@@H](COCc3ccccc3)[C@@]34OC5(CCCCCCC[C@@H](C)[C@H]6[C@H](C)C(=O)[C@@](O)([C@H](O)[C@@]7(CO)O[C@H]7[C@H]3[C@H]1O5)[C@@H]64)O2 | 3.7 | 
11 | CCCCC/C=C\C/C=C\CCCCCCCC(=O)O[C@@]12[C@H](OC(=O)c3ccccc3)[C@@H](C)[C@@]3(O)[C@@H](C=C(CO)C[C@]4(O)C(=O)C(C)=C[C@@H]34)[C@@H]1C2(C)C | 13 | Non-Toxic
12 | C=C(C)[C@]12C[C@@H](COCc3ccccc3)[C@@]34OC5(CCCCC[C@@H](OCc6ccccc6)C[C@@H](C)[C@H]6[C@H](C)[C@H](OCc7ccccc7)[C@@](O)([C@H](O)[C@@]7(CO)O[C@H]7[C@H]3[C@H]1O5)[C@@H]64)O2 | 3.9 | 
13 | C=C(C)[C@]12C[C@@H](C)[C@@]34O[C@]5(CCCCCCC[C@H](C)[C@H]6[C@H](C)C(=O)[C@@](O)([C@H](O)[C@@]7(CO)O[C@H]7[C@H]3[C@H]1O5)[C@@H]64)O2 | 6.9 | 
14 | CCCCC/C=C/CCC(=O)O[C@@]12[C@H](OC(=O)c3ccccc3)[C@@H](C)[C@@]3(O)[C@@H](C=C(CO)C[C@]4(O)C(=O)C(C)=C[C@@H]34)[C@@H]1C2(C)C | 5.8 | Non-Toxic
15 | CCCCCCC(=O)O[C@@]12[C@H](OC(=O)c3ccccc3)[C@@H](C)[C@@]3(O)[C@@H](C=C(CO)C[C@]4(O)C(=O)C(C)=C[C@@H]34)[C@@H]1C2(C)C | 0.94 | 
16 | CC/C=C\C/C=C\CCC(=O)O[C@@]12[C@H](OC(=O)c3ccccc3)[C@@H](C)[C@@]3(O)[C@@H](C=C(CO)C[C@]4(O)C(=O)C(C)=C[C@@H]34)[C@@H]1C2(C)C | 3.2 | 
17 | CC/C=C\C/C=C\C/C=C\CCCCCCCC(=O)O[C@@]12[C@H](OC(=O)c3ccccc3)[C@@H](C)[C@@]3(O)[C@@H](C=C(CO)C[C@]4(O)C(=O)C(C)=C[C@@H]34)[C@@H]1C2(C)C | 7.6 | Non-Toxic
18 | CCCCCCCCCCCCCCCCCC(=O)O[C@@]12[C@H](OC(=O)c3ccccc3)[C@@H](C)[C@@]3(O)[C@@H](C=C(CO)C[C@]4(O)C(=O)C(C)=C[C@@H]34)[C@@H]1C2(C)C |  | Non-Toxic
19 | C=C(C)[C@]12C[C@@H](C)[C@@]34O[C@@](CCCCCCCCC)(O[C@@H]1[C@@H]3[C@@H]1O[C@]1(CO)[C@@H](O)[C@]1(O)C(=O)C(C)=C[C@H]14)O2 | 9 | 
20 | CCCCCCCC/C=C\CCCCCCCC(=O)O[C@@]12[C@H](OC(=O)c3ccccc3)[C@@H](C)[C@@]3(O)[C@@H](C=C(CO)C[C@]4(O)C(=O)C(C)=C[C@@H]34)[C@@H]1C2(C)C | 16 | Non-Toxic
21 | CCCCCCCC(=O)O[C@@]12[C@H](OC(=O)c3ccccc3)[C@@H](C)[C@@]3(O)[C@@H](C=C(CO)C[C@]4(O)C(=O)C(C)=C[C@@H]34)[C@@H]1C2(C)C | 1.5 | 
22 | CCCCC/C=C\CCC(=O)O[C@@H]1[C@@H](C)[C@@]2(O)[C@@H](C=C(CO)C[C@]3(O)C(=O)C(C)=C[C@@H]23)[C@@H]2C(C)(C)[C@]12OC(=O)c1ccccc1 | 18 | Non-Toxic
23 | C=C(C)[C@]12CC[C@@]34OC(C)(O[C@@H]1[C@@H]3[C@@H]1O[C@]1(CO)[C@@H](O)[C@]1(O)C(=O)[C@@H](C)C[C@@H]41)O2 | 3.7 | 
24 | CCCCC/C=C/C/C=C\C/C=C\CCCCC(=O)O[C@@]12[C@H](OC(=O)c3ccccc3)[C@@H](C)[C@@]3(O)[C@@H](C=C(CO)C[C@]4(O)C(=O)C(C)=C[C@@H]34)[C@@H]1C2(C)C | 10 | Non-Toxic
